Laboratory results as given in article PMC11845477, “Exploring the principles behind antibiotics with limited resistance” (Nature Communications, 2025).
Where two headings read alike, the source gives them in different places. Where a SMILES comes first, the peptide text is derived from it. Bridges are numbered along the chain shown (N, C = ends). [ ]: non-standard residue; d: D form. The star is where a group is joined. X1 = NC[C@@H](CC(=O)*)c1cccc(Cl)c1; X2 = CC[C@H](C)CCCCC(=O)*; Dab = NCC[C@H](N)C(=O)O; Dap = NC[C@H](N)C(=O)O

What was measured:
[1] = system: T1, P. aeruginosa ATCC BAA-3107; assay: microbe, parasite or virus in culture; parameters: Serial broth microdilution MIC (CLSI), OD600 below 0.05, 384-well plates, MHB medium; settings: Pseudomonas aeruginosa, ATCCBAA3107, 18 h; ancestor strain before evolution
T1 construct: ATCC BAA-3107
Procedure: (§1) A final concentration of 5 × 10^5 bacterial cells per mL were inoculated into each well containing 60 µL MHB medium. Bacterial cultures were incubated at 37 °C with continuous shaking (Infors shaker, 900 rpm with 3 mm throw) for 18 hours (2 replicates from each). Cell growth was monitored by measuring the optical density (OD600 values, using Biotek Synergy microplate reader). MIC was defined as the antibiotic concentration of complete growth inhibition (i.e., OD600 < 0.05). Relative MIC was calculated as follows:1 relativeMIC=MICevolved/MICancestor This study focused on multiple bacterial strains, as follows. For the FoR and ALE experiments, 2 strains per species were chosen: E. coli ATCC 25922, K. pneumoniae ATCC 10031, A. baumannii ATCC 17978, and P. aeruginosa ATCC BAA-3107 as sensitive (SEN) strains, and E. coli NCTC13846, K. pneumoniae ATCC 700603, A. baumannii ATCC BAA-1605 and P. aeruginosa LESB58 as multi-drug resistant (MDR) strains. Functional metagenomic screens were performed with E. coli ATCC 25922 and K. pneumoniae ATCC 10031 strains. To determine the dose-kill properties of the different antibiotics, an E. coli strain (ATCC 25922) expressing a yellow fluorescent protein (pZS2R, YFP, CHL^R) and a red fluorescent protein (pZS2R, mCherry, CHL^R) was used.

[2] = system: T2, Pseudomonas aeruginosa ATCC BAA 3107; assay: microbe, parasite or virus in culture; parameters: CLSI broth microdilution MIC; OD600 < 0.05 counted as complete growth inhibition; settings: Pseudomonas aeruginosa, BAA3107, 18 h; read-out: MIC of ancestor
T2 construct: ATCC BAA-3107
Procedure: as §1

[3] = system: polymyxin B-resistant lines of A. baumannii (AB-SEN); assay: Cross-resistance of polymyxin B resistant evolved lines, relative MIC; type: cell-based, Acinetobacter baumannii
Description: (§2) To further investigate potential overlaps in resistance mechanisms, we examined the extent of cross-resistance between polymyxin B and other antibiotics that target the bacterial membrane.
(§3) Fig. 7 Cross-resistance of polymyxin B resistant lines to ST and DT permeabilizer antibiotics. […] 3 independently evolved lines from each investigated species were studied, including E. coli (EC), K. pneumoniae (KP), A. baumannii (AB), and P. aeruginosa (PA). Gray color of the main heatmap indicates combinations not tested due to intrinsic resistance of ancestor strain. The additional heatmap to the right depicts genes mutated in each polymyxin B-adapted line and their involvement in specific cellular processes based on KEGG (Kyoto Encyclopedia of Genes and Genomes) and COG (Clusters of Orthologous Genes) databases. The distances between antibiotics were computed using the Euclidean distance method based on the log-transformed MIC values. The clustering was performed using the complete linkage method. […] For detailed information on antibiotic and bacterial strain abbreviations, see Supplementary Data 1. Source data are provided as a Source Data file.
(§4) A robotic liquid handling system was used to automatically prepare a 11 to 16-step serial dilution in 384-well microtiter plates (Greiner). A final concentration of 5 × 10^5 bacterial cells per mL were inoculated into each well containing 60 µL MHB medium. Bacterial cultures were incubated at 37 °C with continuous shaking (Infors shaker, 900 rpm with 3 mm throw) for 18 hours (2 replicates from each). Cell growth was monitored by measuring the optical density (OD600 values, using Biotek Synergy microplate reader). MIC was defined as the antibiotic concentration of complete growth inhibition (i.e., OD600 < 0.05). Relative MIC was calculated as follows:1 relativeMIC=MICevolved/MICancestor […]
(§5) Supplementary Figure 6. Susceptibility of Polymyxin B resistant lines to other ST and DT […]
(§6) dividing the MIC of the evolved line by that of the corresponding ancestor) of 12 polymyxin B resistant lines to ST and DT permeabilizer antibiotics used in this study. Each data point represents a distinct adaptive laboratory evolved polymyxin B resistant line. Boxplots show the median, first and third quartiles, with whiskers showing the 5th and 95th percentiles. P values were calculated using Dunn's post-hoc test with Benjamini-Hochberg correction (NS indicates p > 0.05, ** / **** indicates p < 0.01 / 0.0001, respectively). The resistance level of polymyxin B resistant lines to polymyxin B (PMB), […]
(§7) For detailed information on antibiotic and bacterial strain abbreviations, see Supplementary Table 1. Source data are provided as a Source […]
(§8) (1 picture or pasted object on this page, not shown here)

[4] = system: polymyxin B-resistant lines of K. pneumoniae (KP-SEN); assay: as above; type: cell-based, Klebsiella pneumoniae
Description: as §2, §3, §4, §5, §6, §7, §8

[5] = system: E. coli ATCC 25922 (SEN) and E. coli NCTC13846 (MDR); parameters: method as in PMID 39805953; settings: cited from earlier work
[6] = system: polymyxin B-resistant lines of P. aeruginosa (PA-SEN); assay: Cross-resistance of polymyxin B resistant evolved lines, relative MIC; type: cell-based, Pseudomonas aeruginosa
Description: as §2, §3, §4, §5, §6, §7, §8

[7] = system: K. pneumoniae ATCC 10031 (SEN) and K. pneumoniae ATCC 700603 (MDR); parameters: method as in PMID 39805953; settings: K. pneumoniae sensitive strain; cited from earlier work
[8] = system: P. aeruginosa ATCC BAA-3107 (SEN) and P. aeruginosa LESB58 (MDR); settings: cited from earlier work
Description: page 10: Mobile resistance genes against DT permeabilizer were rare in human-associated microbiomes and clinically relevant pathogens, while they were abundant against ST permeabilizers.

[9] = system: A. baumannii ATCC 17978 (SEN) and A. baumannii ATCC BAA-1605 (MDR); parameters: method as in PMID 39805953; settings: cited from earlier work
[10] = system: Escherichia coli, Klebsiella pneumoniae, Acinetobacter baumannii, and Pseudomonas aeruginosa; settings: all species; cited from earlier work
[11] = AB-SEN, polymyxin B-resistant evolved line 2, MIC evolved/MIC ancestor
[12] = AB-SEN, polymyxin B-resistant evolved line 6, MIC evolved/MIC ancestor
[13] = AB-SEN, polymyxin B-resistant evolved line 9, MIC evolved/MIC ancestor
[14] = polymyxin B-resistant evolved line 2 of AB-SEN, MIC relative to ancestor
[15] = polymyxin B-resistant evolved line 6 of AB-SEN, MIC relative to ancestor
[16] = polymyxin B-resistant evolved line 9 of AB-SEN, MIC relative to ancestor
[17] = KP-SEN, polymyxin B-resistant evolved line 1, MIC evolved/MIC ancestor
[18] = KP-SEN, polymyxin B-resistant evolved line 3, MIC evolved/MIC ancestor
[19] = KP-SEN, polymyxin B-resistant evolved line 7, MIC evolved/MIC ancestor
[20] = polymyxin B-resistant evolved line 1 of KP-SEN, MIC relative to ancestor
[21] = polymyxin B-resistant evolved line 3 of KP-SEN, MIC relative to ancestor
[22] = polymyxin B-resistant evolved line 7 of KP-SEN, MIC relative to ancestor
[23] = PA-SEN, polymyxin B-resistant evolved line 1, MIC evolved/MIC ancestor
[24] = PA-SEN, polymyxin B-resistant evolved line 5, MIC evolved/MIC ancestor
[25] = PA-SEN, polymyxin B-resistant evolved line 7, MIC evolved/MIC ancestor
[26] = polymyxin B-resistant evolved line 1 of PA-SEN, MIC relative to ancestor
[27] = polymyxin B-resistant evolved line 5 of PA-SEN, MIC relative to ancestor
[28] = polymyxin B-resistant evolved line 7 of PA-SEN, MIC relative to ancestor

| Compound | Relative MIC [3, 11] | Relative MIC [3, 12] | Relative MIC [3, 13] | Relative MIC [3, 14] | Relative MIC [3, 15] | Relative MIC [3, 16] | Relative MIC [4, 17] | Relative MIC [4, 18] | Relative MIC [4, 19] | Relative MIC [4, 20] | Relative MIC [4, 21] | Relative MIC [4, 22] | Relative MIC [6, 23] | Relative MIC [6, 24] | Relative MIC [6, 25] | Relative MIC [6, 26] | Relative MIC [6, 27] | Relative MIC [6, 28] | resistance level (relative MIC) after FoR assay [7] | increase in resistance level after adaptive laboratory evolution [8] | also measured |
| --- | --- | --- | --- | --- | --- | --- | --- | --- | --- | --- | --- | --- | --- | --- | --- | --- | --- | --- | --- | --- | --- |
| Nc1nc(-n2cc(C(=O)O)c(=O)c3cc(F)c(N4CC(O)C4)c(Cl)c32)c(F)cc1F [Delafloxacin] |  |  |  |  |  |  |  |  |  |  |  |  |  |  |  |  |  |  |  |  | MIC [1]: 0.0156 µg/mL; MIC [2]: 0.0156 µg/mL |
| CC[C@H](C)CCCCC(=O)N[C@@H](CCN)C(=O)N[C@H](C(=O)N[C@@H](CCN)C(=O)N[C@H]1CCNC(=O)[C@H]([C@@H](C)O)NC(=O)[C@H](CCN)NC(=O)[C@H](CCN)NC(=O)[C@H](CC(C)C)NC(=O)[C@@H](Cc2ccccc2)NC(=O)[C@H](CCN)NC1=O)[C@@H](C)O [Polymyxin B] (X2-[Dab]T[Dab][Dab][Dab][dF]L[Dab][Dab]T; lactam 4-C (inferred); N-terminus assumed) | 64 | 1024 | 64 | 64 | 1024 | 64 | 32 | 64 | 64 | 32 | 64 | 64 | 32 | 32 | 8 | 32 | 32 | 8 | no resistant mutants emerged | 32 fold | resistance level (relative MIC) after FoR assay ([5]; multidrug-resistant E. coli strain): no resistant mutants emerged; resistance level (relative MIC) after FoR assay ([9]; A. baumannii multidrug-resistant (MDR) strain): more than 128 fold; resistance level (relative MIC) after FoR assay ([9]; A. baumannii sensitive strain): no resistant mutants emerged |
| CC(C)c1ccc(Cn2ccc3c4c(N)nc(NC5CC5)nc4ccc32)cc1 [SCH79797] | 1 | 0.5 | 1 | 1 | 0.5 | 1 | 1 | 1 | 1 | 1 | 1 | 1 |  |  |  |  |  |  |  |  | average increment in resistance level (relative MIC) after FoR assay [10]: less than fourfold |
| CC(C)C[C@@H]1NC(=O)[C@@H](Cc2ccccc2)NC(=O)[C@H](CCN)NC(=O)[C@@H](NC(=O)[C@H](CN)NC(=O)[C@@H](NC(=O)C[C@H](CN)c2cccc(Cl)c2)[C@@H](C)O)CCNC(=O)[C@H]([C@@H](C)O)NC(=O)[C@H](CCN)NC(=O)[C@H](CCN)NC1=O [SPR206] (X1-T[Dap][Dab][Dab][dF]L[Dab][Dab]T; lactam 3-C (inferred); N-terminus assumed) | 128 | 2048 | 128 | 128 | 2048 | 128 | 32 | 128 | 128 | 32 | 128 | 128 | 64 | 64 | 32 | 64 | 64 | 32 | more than 128 fold | 32 fold | resistance level (relative MIC) after FoR assay ([5]; E. coli sensitive strain): more than 128 fold |
| POL7306 | 32 | 32 | 8 | 32 | 32 | 8 | 1 | 32 | 32 | 1 | 32 | 32 | 1 | 1 | 4 | 1 | 1 | 4 |  |  |  |
| colistin | 32 | 512 | 32 | 32 | 512 | 32 | 32 | 64 | 32 | 32 | 64 | 32 | 32 | 32 | 16 | 32 | 32 | 16 |  |  |  |
